Source: ChEMBL document CHEMBL4118278, “Design, synthesis and biological evaluation of deuterated Vismodegib for improving pharmacokinetic properties” (Bioorg Med Chem Lett, 2018)

Legend:
Format in all cases: ADME, organism-based
Conditions in all cases: in vivo
[1] = Tmax in CD-1 mouse at 5 mg/kg, po administered as single dose by LC-MS/MS analysis
[2] = AUC (0 to infinity) in CD-1 mouse at 5 mg/kg, po administered as single dose by LC-MS/MS analysis; parameters: dose 5 mg/kg, route oral, time infinity
[3] = Half life in CD-1 mouse at 5 mg/kg, po administered as single dose by LC-MS/MS analysis
[4] = Cmax in CD-1 mouse at 5 mg/kg, po administered as single dose by LC-MS/MS analysis; parameters: dose 5 mg/kg, route oral
[5] = AUC (0 to t) in CD-1 mouse at 5 mg/kg, po administered as single dose by LC-MS/MS analysis

Row | Compound | Tmax [1] [h] | AUC(0-inf) [2] [ng·h/mL] | half-life [3] [h] | Cmax [4] [ng/mL] | AUC(0-t) [5] [ng·h/mL]
1 | [2H]c1nc(-c2cc(NC(=O)c3ccc(S(C)(=O)=O)cc3Cl)ccc2Cl)c([2H])c([2H])c1[2H] | 1 | 17100 | 8.55 | 1870 | 6510
2 | [2H]c1cc(Cl)c(-c2nc([2H])c([2H])c([2H])c2[2H])c([2H])c1NC(=O)c1ccc(S(C)(=O)=O)cc1Cl | 1 | 6110 | 2.56 | 972 | 6110
3 | [2H]c1cc(Cl)c(-c2ccccn2)c([2H])c1NC(=O)c1ccc(S(C)(=O)=O)cc1Cl | 1 | 8290 | 2.82 | 1610 | 6280
4 | CS(=O)(=O)c1ccc(C(=O)Nc2ccc(Cl)c(-c3ccccn3)c2)c(Cl)c1 [VISMODEGIB] | 1 | 7660 | 5.62 | 854 | 4050
